The results in this text go back to article PMC7489893, “A small molecule inhibitor of HER3: a proof-of-concept study” (Biochemical Journal, 2020).

The target in one assay is T1, HER2 kinase domain (Homo sapiens, UniProt P04626).
T1 construct: gene ERBB2; kinase domain, ThermoFisher in vitro kinase assay
As to the kind of experiment: biochemical. Also on record: in vitro HER2 kinase inhibition assay at the Km for ATP (ThermoFisher). To be noted: at Km for ATP; read-out: Activity against HER2, IC50. The source says:
Since the readout for HER3 function in cells required HER2 activity, it was critical to confirm HER2 inactivity of these compounds.

The target in a further assay is T2, HER2 (Homo sapiens, UniProt P04626, M706A/M712L/Q711L).
T2 construct: gene ERBB2; HER2 kinase domain (S703-G1029)
As to the kind of experiment: biochemical. Also on record: differential scanning fluorimetry with SYPRO Orange, shift in HER2 kinase domain Tm (counter screen). To be noted: counter screen. As for the experimental part: Thermal shift assays were performed using a QuantStudio7 Flex Real-Time PCR instrument (Applied Biosystems, ThermoFischer Scientific) scanning from 15°C to 75°C in 0.5°C increments every 30 s after an initial incubation at 15°C for 1 min. Fluorescence was measured at the end of each 30 s period with an excitation wavelength of 470 nm and an emission wavelength of 620 nm. HER3 and HER2 kinase domain recombinant proteins were diluted in 50 mM Hepes pH 7.5, 150 mM NaCl, 5% glycerol and 1 mM DTT to a concentration of 1.5 μM and then incubated with the indicated concentration of compounds in a total reaction volume of 10 μl, with a final concentration of 2.5X SYPRO Orange (ThermoFisher Scientific) as fluorescence probe. […] We sought to identify compounds binding specifically to HER3. Since HER2 and HER3 are highly homologous EGFR family members, we took forward the 555 compounds identified as stabilising HER3, to be counter screened for HER2 binding. […] Compounds binding to HER2, i.e. inducing a shift in HER2 Tm over 2°C (3×SD) compared with the DMSO neutral control were disregarded (Supplementary Figure S2D). […] A differential scanning fluorimetry (DSF) assay compound screen identifies 428 HER3-preferential binders from a 107 008 compound library. (A) Overview of the screening strategy and hit rate for each step of the screening cascade. […] ApoHER3 (HER3 kinase domain with no ligand) was used as a control for all DSF analyses (mean of ApoHER3 Tm across the plates set at ΔTm = 0°C is indicated by the dash green line) and ΔTm values were calculated for each pool of compounds tested at 30 μM each (N = 1). Cut-off values of ΔTm>3°C and ΔTm < −5°C were used to designate hits (shown as dashed pink lines). The pool of compounds containing proof-of-concept compound AC3573 is circled. Gaps indicate the rare plate failures (three plates). Compounds from these plates were retested during the deconvolution screen. (C) Correlation of shift in HER3 Tm value induced by deconvoluted pool compounds tested at 30 μM between the two repeats of deconvolution screening. AC3573 and its three pool compounds are highlighted. (D) Dose-dependent analysis of thermal shifts induced by AC3573 compound tested at 1, 3, 10 and 30 μM in the HER3 potency screen. The change in HER3 Tm value (ΔTm), compared with ApoHER3 control, is reported as mean ± SD from N = 4 independent experiments. Representative thermal denaturation profiles of recombinant HER3 kinase domain, in the presence of 0.3% DMSO (Apo control), ATP/MgCl2 (ATP control) or AC3573 tested at 1, 3, 10 and 30 μM. (E) Dose-dependent analysis of thermal shifts induced by AC3573 compound tested at 1, 3, 10 and 30 μM in the HER2 counter screen. […]
(In general: The purpose of a counterscreen is to sort out artefacts and off-target activity.)

Assay [1] deals with T3, HER3 (Homo sapiens, UniProt P21860).
T3 sequence (P21860 684-1020): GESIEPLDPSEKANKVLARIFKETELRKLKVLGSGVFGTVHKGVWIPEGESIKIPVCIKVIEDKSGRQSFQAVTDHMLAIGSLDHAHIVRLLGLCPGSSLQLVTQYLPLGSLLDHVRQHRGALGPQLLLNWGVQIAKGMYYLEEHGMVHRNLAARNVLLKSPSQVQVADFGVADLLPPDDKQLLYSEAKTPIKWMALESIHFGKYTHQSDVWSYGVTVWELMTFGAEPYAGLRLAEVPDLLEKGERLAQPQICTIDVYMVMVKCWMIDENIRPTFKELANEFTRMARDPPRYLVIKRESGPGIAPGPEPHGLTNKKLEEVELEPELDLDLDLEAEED
In words: DSF dose-response thermal shift; HDX-MS binding site mapping. On the set-up: gene ERBB3.

The target of assay [2] is T3, HER3. As to the kind of experiment: biochemical. On the set-up: gene ERBB3; HER3 kinase domain (residues G684-D1020); differential scanning fluorimetry with SYPRO Orange, shift in HER3 kinase domain Tm. As for the experimental part: Thermal shift assays were performed using a QuantStudio7 Flex Real-Time PCR instrument (Applied Biosystems, ThermoFischer Scientific) scanning from 15°C to 75°C in 0.5°C increments every 30 s after an initial incubation at 15°C for 1 min. Fluorescence was measured at the end of each 30 s period with an excitation wavelength of 470 nm and an emission wavelength of 620 nm. HER3 and HER2 kinase domain recombinant proteins were diluted in 50 mM Hepes pH 7.5, 150 mM NaCl, 5% glycerol and 1 mM DTT to a concentration of 1.5 μM and then incubated with the indicated concentration of compounds in a total reaction volume of 10 μl, with a final concentration of 2.5X SYPRO Orange (ThermoFisher Scientific) as fluorescence probe. […] Hit compounds stabilising HER3 were then evaluated for their relative binding affinity in a dose–response thermal shift assay at 1, 3, 10 and 30 μM (Supplementary Figure S2C). […] The proof-of-concept compound was confirmed as a HER3 binder inducing a shift in HER3 Tm of over 3°C with the dose–response indicating an estimated IC50 of 4 μM (Figure 1D and Supplementary Table S2). Near neighbours of those 109 hits were selected and 663 new compounds were screened in duplicate for their relative potency at 1, 3, 10 and 30 μM by thermal shift assay. From those, 446 compounds passed the selection criteria, i.e. induced shift in HER3 Tm > 3°C below 10 μM (data not shown). Figure 1. A differential scanning fluorimetry (DSF) assay compound screen identifies 428 HER3-preferential binders from a 107 008 compound library. (A) Overview of the screening strategy and hit rate for each step of the screening cascade. […] ApoHER3 (HER3 kinase domain with no ligand) was used as a control for all DSF analyses (mean of ApoHER3 Tm across the plates set at ΔTm = 0°C is indicated by the dash green line) and ΔTm values were calculated for each pool of compounds tested at 30 μM each (N = 1). Cut-off values of ΔTm>3°C and ΔTm < −5°C were used to designate hits (shown as dashed pink lines). The pool of compounds containing proof-of-concept compound AC3573 is circled. Gaps indicate the rare plate failures (three plates). Compounds from these plates were retested during the deconvolution screen. (C) Correlation of shift in HER3 Tm value induced by deconvoluted pool compounds tested at 30 μM between the two repeats of deconvolution screening. AC3573 and its three pool compounds are highlighted. (D) Dose-dependent analysis of thermal shifts induced by AC3573 compound tested at 1, 3, 10 and 30 μM in the HER3 potency screen. The change in HER3 Tm value (ΔTm), compared with ApoHER3 control, is reported as mean ± SD from N = 4 independent experiments. […]

The target in assay [3] is T3, HER3. In words: biochemical. On the set-up: gene ERBB3; HER3 kinase domain (residues G684-D1020); differential scanning fluorimetry with SYPRO Orange, HER3 Tm shift, single-compound deconvolution screen. To be noted: read-out: ΔTm (°C) HER3 deconvolution screen. As for the experimental part: Thermal shift assays were performed using a QuantStudio7 Flex Real-Time PCR instrument (Applied Biosystems, ThermoFischer Scientific) scanning from 15°C to 75°C in 0.5°C increments every 30 s after an initial incubation at 15°C for 1 min. Fluorescence was measured at the end of each 30 s period with an excitation wavelength of 470 nm and an emission wavelength of 620 nm. HER3 and HER2 kinase domain recombinant proteins were diluted in 50 mM Hepes pH 7.5, 150 mM NaCl, 5% glycerol and 1 mM DTT to a concentration of 1.5 μM and then incubated with the indicated concentration of compounds in a total reaction volume of 10 μl, with a final concentration of 2.5X SYPRO Orange (ThermoFisher Scientific) as fluorescence probe. […] Having established a robust screening platform, a total of 107 008 small molecule compounds were screened as mixtures of four compounds per well (a total of 26 752 wells) at 30 μM each in a primary library screen. […] In the second step of screening, hit pools of compounds were arrayed as individual compounds and 3119 compounds (2835 hits plus 284 compounds from failed wells from the primary screen) were assessed at 30 μM, using the same thermal shift assay settings as for the primary screen (0.3% DMSO as neutral controls reflecting the single compound use, 200 μM ATP/10 mM MgCl2 as positive controls) applying again a cut-off value of ΔTm > 3°C (Figure 1C). […]

The mark [4] stands for this setting: read-out: ΔTm (°C) HER3 potency screen.

Read-outs that look alike come from different tables or passages of the source.

The IC50 is the point on the concentration scale where inhibition reaches its midpoint. The ΔTm is the shift of the melting midpoint relative to a reference. In the case of `NS(=O)(=O)c1cccc(Nc2cc(-c3c[nH]c4ccccc34)ncn2)c1` [AC3573], the IC50 on HER2 kinase domain was greater than 10 µM; on HER3 [1], roughly 4 µM. Also, the ΔTm at 1 µM at HER2 (1 uM) was -0.75 ± 0.18 °C; at HER3 [2] (setting [4]), -1.34 ± 0.48 °C. For the same compound, the ΔTm at 3 µM on HER2 (3 uM) worked out at 0.48 ± 0.52 °C; at HER3 [2] (3 uM, potency screen), 1.27 ± 0.51 °C. For the same compound, the values for the ΔTm at 10 µM at HER2 (10 uM) and at HER3 [2] (setting [4]) were 1.56 ± 0.26 °C and 3.28 ± 0.62 °C, respectively. The ΔTm at 30 µM at HER2 (30 uM) worked out at 1.95 ± 0.25 °C; on HER3 [2] (30 uM, potency screen), 3.2 ± 0.24 °C; at HER3 [3], 3.65 ± 0.25 °C.
